Source: patent US20230277632A1, “MODIFIED PlySs2 LYSINS AND ANTIBIOTIC COMBINATIONS FOR USE AGAINST GRAM-POSITIVE BACTERIA” (ContraFect Corporation, priority 2020, published 2023)
Like-named read-outs stand apart in the source and are kept apart here.

Test system: MSSA strains
Assay: Checkerboard assay: pp296 or CF-301 with oxacillin
Type: cell-based, Staphylococcus aureus
Conditions: for MIC: Staphylococcus aureus, read-out: Single agent MICs; for FIC / MIC in combination: pp296 + oxacillin; for MIC in combination: unit assumed; for ΣFICmin: with oxacillin
Source text: In some embodiments, the present modified lysin polypeptides reduce the minimum inhibitory concentration (MIC) of an antibiotic. Any known method to assess MIC may be used. In some embodiments, a checkerboard assay is used to determine the effect of a lysin on antibiotic concentration. The checkerboard assay is based on a modification of the CLSI method for MIC determination by broth microdilution (See Clinical and Laboratory Standards Institute (CLSI), CLSI. 2015. Methods for Dilution Antimicrobial Susceptibility Tests for Bacteria That Grow Aerobically; Approved Standard-10th Edition. Clinical and Laboratory Standards Institute, Wayne, Pa., which is herein incorporated by reference in its entirety and Ceri et al. 1999. J. Clin. Microbiol. 37: 1771-1776, which is also herein incorporated by reference in its entirety).
Checkerboards are constructed by first preparing columns of e.g., a 96-well polypropylene microtiter plate, wherein each well has the same amount of antibiotic diluted 2-fold along the horizontal axis. […] The lysin and antibiotic dilutions are then combined, so that each column has a constant amount of antibiotic and doubling dilutions of lysin, while each row has a constant amount of lysin and doubling dilutions of antibiotic. Each well thus has a unique combination of lysin and antibiotic. Bacteria are added to the drug combinations at a given concentration. […] Summation fractional inhibitory concentrations (ΣFICs) are calculated for each drug and the minimum ΣFIC value (ΣFICmin) is used to determine the effect of the lysin/antibiotic combination.
The ability of CF-301 or a modified lysin polypeptide pp296 to synergize with oxacillin was assessed using a checkerboard analysis. For the checkerboard assay, a total of 50 μl of Mueller-Hinton broth is distributed into each well of microdilution plates. Then, a first antibiotic of a combination is serially diluted along the ordinate, while a second drug is diluted along the abscissa. An inoculum equal to a 0.5 McFarland turbidity standard is prepared from each bacterial isolate in Mueller-Hinton broth. Each microtiter well is then inoculated with 100 μl of a bacterial inoculum of 5×10^5 CFU/ml, and the plates are incubated at 37° C. for 18 h under aerobic conditions. The resulting checkerboard contains each combination of two antibiotics, with wells that contain the highest concentration of each antibiotic at opposite corners. […] To quantify the interactions between the antibiotics being tested, the FIC index (the combination of antibiotics that produced the greatest change from the individual antibiotic's MIC) value is calculated for each strain and antibiotic combination as follows:
(A/MICA)+(B/MICB)=FICA+FICB=FIC index,
where A and B are the MIC of each agent in combination in a single well, and MICA and MICB are the MIC of each drug when used individually. The combination is considered strongly synergistic when the FIC index is ≤0.5 and synergistic when the FIC index is >0.5-<1.

Cc1onc(-c2ccccc2)c1C(=O)N[C@@H]1C(=O)N2[C@@H]1SC(C)(C)[C@@H]2C(=O)O [Oxacillin, oxacillin]
MIC (ATCC 29213 / MSSA, MSSA ATCC 29213): 0.5 µg/mL
MIC (MSSA, MSSA JMI-6625): 1 µg/mL
MIC (MSSA, MSSA JMI-6885): 1 µg/mL
MIC (MSSA, MSSA JMI-6886): 1 µg/mL
MIC (MSSA, MSSA JMI-7054): 1 µg/mL
MIC (MSSA, MSSA JMI-7160): 1 µg/mL
MIC (MSSA, MSSA JMI-38739): 0.5 µg/mL
MIC (MSSA, MSSA JMI-38986): 0.5 µg/mL
MIC (MSSA, MSSA JMI-40671): 0.5 µg/mL
MIC (MSSA, MSSA JMI-46142): 0.5 µg/mL
FIC (MSSA ATCC 29213): 0.25
MIC in combination (MSSA ATCC 29213): 0.125 µg/mL
FIC (MSSA JMI-6625): 0.25
MIC in combination (MSSA JMI-6625): 0.25 µg/mL
FIC (MSSA JMI-6885): 0.125
MIC in combination (MSSA JMI-6885): 0.125 µg/mL
FIC (MSSA JMI-6886): 0.25
MIC in combination (MSSA JMI-6886): 0.25 µg/mL
FIC (MSSA JMI-7054): 0.25
MIC in combination (MSSA JMI-7054): 0.25 µg/mL
FIC (MSSA JMI-7160): 0.25
MIC in combination (MSSA JMI-7160): 0.25 µg/mL
FIC (MSSA JMI-38739): 0.25
MIC in combination (MSSA JMI-38739): 0.125 µg/mL
FIC (MSSA JMI-38986): 0.25
MIC in combination (MSSA JMI-38986): 0.125 µg/mL
FIC (MSSA JMI-40671): 0.125
MIC in combination (MSSA JMI-40671): 0.0625 µg/mL
FIC (MSSA JMI-46142): 0.25
MIC in combination (MSSA JMI-46142): 0.125 µg/mL

B1: CF-301: Lysin CF-301, comparator lysin in the oxacillin checkerboard analysis (protein)
chain: MTTVNEALNNVRAQVGSGVSVGNGECYALASWYERMISPDATVGLGAGVGWVSGAIGDTISAKNIGSSYNWQANGWTVSTSGPFKAGQIVTLGATPGNPYGHVVIVEAVDGDRLTILEQNYGGKRYPVRNYYSAASYRQQVVHYITPPGTVAQSAPNLAGSRSYRETGTMTVTVDALNVRRAPNTSGEIVAVYKRGESFDYDTVIIDVNGYVWVSYIGGSGKRNYVATGATKDGKRFGNAWGTFK
ΣFICmin (MSSA ATCC 29213): 0.5
ΣFICmin (MSSA JMI-6625): 0.375
ΣFICmin (MSSA JMI-6885): 0.5
ΣFICmin (MSSA JMI-6886): 0.5
ΣFICmin (MSSA JMI-7054): 0.5
ΣFICmin (MSSA JMI-7160): 0.5
ΣFICmin (MSSA JMI-38739): 0.5
ΣFICmin (MSSA JMI-38986): 0.375
ΣFICmin (MSSA JMI-40671): 0.3125
ΣFICmin (MSSA JMI-46142): 0.375
